Laboratory results: patent US11851428B2, “Activator of TREK (TWIK RElated K+channels) channels” (ONO PHARMACEUTICAL CO., LTD., priority 2016, dated 2023)
“Also recorded” adds a separate entry of the source.

Tests used:
[1] = biological target: T1, human TREK-1 (Homo sapiens, UniProt O95069); assay: thallium flux assay (TREK1 activation normalized to BL-1249); type: cell-based; conditions: normalized to 10 μM BL-1249, CHO-K1 cells stably expressing human TREK-1, read-out: TREK1 activation RBL-1249 (%)
T1 construct: expressed in transfected cells
T1 sequence (O95069 1-426): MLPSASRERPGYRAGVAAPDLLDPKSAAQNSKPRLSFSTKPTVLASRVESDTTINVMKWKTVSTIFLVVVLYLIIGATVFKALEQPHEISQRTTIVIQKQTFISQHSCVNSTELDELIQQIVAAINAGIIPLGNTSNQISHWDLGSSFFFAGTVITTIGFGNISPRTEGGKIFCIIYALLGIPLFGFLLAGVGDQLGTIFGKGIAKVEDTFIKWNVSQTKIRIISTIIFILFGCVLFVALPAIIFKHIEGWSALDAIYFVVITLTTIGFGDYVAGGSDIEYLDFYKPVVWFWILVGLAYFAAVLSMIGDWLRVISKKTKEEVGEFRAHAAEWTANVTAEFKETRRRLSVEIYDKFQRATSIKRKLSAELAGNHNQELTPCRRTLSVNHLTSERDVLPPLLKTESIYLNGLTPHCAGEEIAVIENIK

[2] = test system: ICR mice; assay: acetic acid writhing assay; type: in vivo, mouse; conditions: for number of writhes induced by acetic acid: ICR mice, 2 h before acetic acid i.p., counted for 30 min, vs vehicle; for number of writhes induced by acetic acid (FIGURE legend): mouse, p.o., dose not stated in the legend, *p<0.05 vs vehicle
Method: d. Analgesic Effect in Acetic Acid Writhing Assay
ICR mice were pretreated with vehicle (0.5 w/v % methyl cellulose, p.o.) or Example 1-25 compounds (0.3, 1, 3 mg/kg, p.o.) or Example 2 compounds (1, 10, 300 mg/kg, p.o.) or indomethacin (10 mg/kg, p.o.). Compounds were suspended in 0.5 w/v % methyl cellulose and indomethacin was dissolved in 0.7% sodium bicarbonate. All drugs were administered in a volume of 10 mL/kg. Two hours after administration of the disclosed compounds and vehicle, or one hour after administration of indomethacin, the animals were injected with acetic acid (0.7% v/v in saline, 10 mL/kg, i.p.). The number of writhes (characterized by contraction of the abdominal musculature and extension of the limbs) was then counted for 30 min. Analgesic effect was evaluated by comparing the number of writhes between the rest compounds group and the vehicle group.

Compound	activation at 10 µM ([1]; concentration of Example compound 10 μM) [%]	number of writhes induced by acetic acid ([2]; 3 mg/kg p.o., 3 mg/kg)	number of writhes induced by acetic acid (FIGURE legend) [2]	activation at 30 µM ([1]; concentration of Example compound 30 μM) [%]	number of writhes induced by acetic acid ([2]; 300 mg/kg p.o., 300 mg/kg)
O=C(NCc1ccc(OC(F)(F)F)cc1F)c1ccc2ncnn2c1 [Example 1-25, N-[2-fluoro-4-(trifluoromethoxy)benzyl][1,2,4]triazolo[1,5-a]pyridine-6-carboxamide]	82	significantly decreased the number of writhes; also recorded: the same degree as indomethacin 10 mg/kg	inhibit the number of writhes induced by acetic acid	–	–
Cc1cc(OC(F)(F)F)ccc1CNC(=O)c1ccc(-n2cncn2)nc1 [Example 2, N-[2-Methyl-4-(trifluoromethoxy)benzyl]-6-(1H-1,2,4-triazol-1-yl)nicotinamide]	–	–	inhibit the number of writhes induced by acetic acid	20	significantly decreased the number of writhes; also recorded: the same degree as indomethacin 10 mg/kg
